Data: patent US10780076B2, “Inhibition of cancer cell motility” (Northwestern University, priority 2014, dated 2020)

Experiments:
human prostate cells = experiment: Three day cell growth inhibition, prostate cells; format: cell-based; details: 3 days
[1] = tested on: human PCa PC3-M cell orthotopic implants; experiment: Orthotopic murine model of human PCa metastasis; format: in vivo, mice; details: lung metastasis, KBU2046 in chow, dose-dependent
Procedure: FIGS. 3A-D. KBU2046 inhibits cancer metastasis and prolongs life. (A, B) Inhibition of PCa metastasis. Cohorts of athymic mice bearing human PCa PC3-M cell orthotopic implants (A), or of non-tumor bearing athymic mice (B), were treated with KBU2046 incorporated into chow, and resultant lung metastasis (A) or plasma KBU2046 concentration (B) measured. Values are the mean±SEM. The relationship between dose and metastasis was evaluated by two-sided ANOVA (A). (C) Comprehensive characterization of KBU2046 phannacokinetics. CD1 mice were dosed with 100 mg KBU2046/kg via oral gavage or intravenous injection (iv), and blood collected at the indicated time points. The dotted horizontal line denotes a concentration of 24 nM, which was the concentration of KBU2046 measured in the blood of mice whose metastasis were suppressed by 92% (A, B). […]
Orthotopic implantation of human PCa cells and quantification of distant metastasis was performed as described (Pavese et al., 2013; herein incorporated by reference in its entirety). […] Quantification of KBU2046 plasma concentrations was performed by LCMS. […] Critical organs were examined for structural damage using a semi-quantitative histological scoring system (Knodell et al., 1981; herein incorporated by reference in its entirety), while their function was assessed by comprehensive clinical laboratory testing of blood samples. […]

[2] = tested on: phosphorylated Ser226 on HSP90β in PC3 cells; experiment: PhosphoScan LC-MS/MS of BL4176 immunoprecipitate; format: cell-based, human; details: 10 μM, 3 days, then TGFβ
Procedure: FIG. 16. Identification of the 83 kDa band using a proteomic approach. PC3 cells were pre-treated with 10 μM KBU2046 or vehicle (control) for 3 days, then treated with TGFβ for 1 hr, and the resultant cell lysates were subjected to immunoprecipitation with BL4176 (Kinoview® phospho-motif antibody). Proteins bound in this manner were analyzed using PhosphoScan™ technology. This identified 483 unique phosphopeptide assignments from 306 parent proteins, with a mean false discovery rate of 0.30% (estimated via Sorcerer search of composite human database of forward and reverse protein entries). Only proteins where the average values for treatment and control were each 3 times that of background were considered. Further, it was required that each of the replicate values (used to calculate the average) to be >/=2.5 fold above background. According to these parameters, there were 19 phospho-proteins whose expression decreased in cells treated with KBU2046, compared to control.
Screening for changes in the kinome induced by KBU2046 were evaluated with the Kinoview™ assay system. Proteins pulled down by motif-directed Kinoview™ antibody were identified through PhosphoScan™ technology, using LTQ-Orbitrap LC-MS/MS analysis coupled to a SEQUEST/Sorcerer data analysis suite (Lundgren et al., 2009; herein incorporated by reference in its entirety). […]

[3] = tested on: osteonectin expression in PC3 cells; experiment: Gene array screen for differentially expressed genes; format: cell-based, human
Procedure: FIGS. 21A-C. KBU2046 disrupts osteonectin expression. PC3 cells were treated +/− with 10 uM KBU2046×3 d (A), or were transfected with siRNA to osteonectin (siOST) or non-targeting (siCO) (B), and osteonectin/GAPDH expression measured by qRT/PCR. (C) PC3 cells were transfected with siOST, siCO, treated with +/−KBU2046, and cell invasion measured.
Having identified inhibition of Ser^226 phosphorylation as the molecular target of KBU2046 for inhibition of cell motility, experiments were conducted during development of embodiments herein to identify downstream regulators of its action. PC3 cells with KBU2046, and screened for differentially expressed genes using two different SABiosciences (Qiagen) gene array platforms: Human Metastasis Array and Human Extracellular Matrix and Adhesion Molecule Array. […] No other significant effects were identified. Separate experiments confirmed differential expression by gene-specific qRT/PCR (FIG. 21A). […] Clinically, overexpression of osteonectin in primary PCa has been associated with the development of metastasis to bone.

O=C1c2ccccc2OCC1c1ccc(F)cc1 (racemic) [KBU2046, 4′-fluoroisoflavanone]
toxicity to human prostate cells (cell growth inhibition) (human prostate cells): not toxic
decrease in metastasis [1]: up to 92%
decrease in abundance of phosphorylated Ser226 on HSP90β [2]: 6.6 fold
suppression of osteonectin expression [3]: 2.0 fold
